# Reference: patent publication US20250360130A1, “METHODS OF TREATING INDOLENT SYSTEMIC MASTOCYTOSIS” (Telios Pharma Inc., priority 2024, published 2025)
# How the values were obtained:
# mast cells = experiment: Phosphorylation and degranulation of antigen-stimulated mast cells grown with chronic SCF (FIG. 21); type: cell-based; details: 1 μM, antigen 15 minutes
# Procedure: Histamine release, CD63 expression, CD203c expression, pBTK (Y223) levels, pP38 (T180/Y182) levels, pPLCg1 (S1248) levels, pERK (T202/Y204) levels, and pS6 (S235/236) levels are shown. Mast cells were grown with continuous (chronic) exposure to SCF and then stimulated with antigen (Ag) for 15 minutes, leading to phosphorylation of multiple kinases, including pBTK, […], pP38, pERK, and pS6 ribosome. This stimulation increases degranulation markers, including CD63, CD203c, and histamine release.
# ISM patients = details: cited from earlier work
# basophils = experiment: Comparison of BTK inhibitors by BAT (CD63, CD203c); type: cell-based, human; details: concentration of 1 μM, 2 hours, blood from a healthy donor
# Procedure: The BAT assay using the Flow Cast Basophil Activation Kit (Buhlmann Diagnostics; Catalog #B-CCR-STCON) was then conducted following manufacturer instructions by (1) stimulating the blood with anti-FcεR stimulation control in stimulation buffer with IL-3 and staining cells for CCR3 and CD63 for 15 minutes at 37° C., (2) lysing red blood cells and fixing cells with Lysing Reagent at room temperature for 10 minutes, (3) washing cells with Wash Buffer, and (4) acquiring data on a flow cytometer. Activated basophils were defined as CCR3+, low side scatter and CD63+. Percent of activated basophils was calculated as number of activated basophils over the total number of basophils. A four-parameter logistic regression was applied to determine the EC50 and EC90.
# Blood samples were gently rocked at room temperature for 2 hours. […] Activated basophils were also defined as CCR3+, low side scatter and CD203c+.
# [1] = system: subjects with AdvSM and ISM; details: cited from earlier work
# humans = details: cited from earlier work
structure (smiles),measurement,setting,value
Cn1cc(-c2cc3c(N4CCN(c5ncc([C@@](C)(N)c6ccc(F)cc6)cn5)CC4)ncnn3c2)cn1 [avapritinib],activation (phosphorylation and degranulation) of mast cells,mast cells,only partially inhibits activation
same,reduction of total symptom score compared to the placebo,"ISM patients; 25 mg QD, week 24, ISM patients",5.7 points
same,ISM patients with dose interruptions due to adverse reactions,ISM patients; 25 mg QD,5%
same,treated subjects who failed to achieve a mean symptom score reduction of 30%,"ISM patients; ISM patients, first 6 months of treatment",approximately half
same,subjects who achieved a 50% symptom score reduction,"ISM patients; ISM patients, within the first 6 months of treatment",about a third
"CC#CC(=O)N1CCC[C@H]1c1nc(-c2ccc(C(=O)Nc3ccccn3)cc2)c2c(N)nccn12 [acalabrutinib, Acalabrutinib ((S)-4-(8-amino-3-(1-(but-2-ynoyl)pyrrolidin-2-yl)imidazo[1,5-a]pyrazin-1-yl)-N-(pyridin-2-yl)benzamide), reference compound]","basophil activation (CD63+, CD203c+)",basophils,no effect on basophil activation
Cc1nc(Nc2ncc(C(=O)Nc3c(C)cccc3Cl)s2)cc(N2CCN(CCO)CC2)n1 [dasatinib],subjects who discontinued treatment due to toxicity,"[1]; 15 subjects with AdvSM and 18 subjects with ISM, overall",34%
same,"pleural effusion, grade 3 adverse event, patients overall",[1]; overall study population,10%
"C=CC(=O)N1CCC[C@@H](n2nc(-c3ccc(Oc4ccccc4)cc3)c3c(N)ncnc32)C1 [ibrutinib, Ibrutinib (1-[(3R)-3-[4-amino-3-(4-phenoxyphenyl)pyrazolo[3,4-d]pyrimidin-1-yl]piperidin-1-yl]prop-2-en-1-one)]",adverse events associated with administration,humans,"heightened risk of atrial fibrillation, hypertension, major bleeding events, and cytopenias"
